In patent US10124004B2, “Pyrido[3,4-d]pyrimidine derivative and pharmaceutically acceptable salt thereof” (Teijin Pharma Limited, priority 2015, dated 2018) one finds IC50 data, which are given here for 25 compounds.

SMILES strings stand for the structures. pIC50: −log10 of the molar value. Where two headings read alike, the source gives them in different places.

In one assay the target is T1, CDK4/cyclin D3 (Homo sapiens, UniProt P11802).
T1 construct: purchased Carna Biosciences, Inc. QS S Assist CDK4/Cyclin D3_FP Kit
The experiment in a line: Human CDK4/cyclin D3 inhibitory activity (QS S Assist CDK4/Cyclin D3_FP Kit, IMAP fluorescence polarization). The class given is biochemical. The essentials:
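IMAP fluorescence-polarization kinase assay with kit ATP/substrate/metal mix and 12.5 to 25 ng/well enzyme in 20 mM HEPES pH 7.4, 0.01% Tween20, 2 mM DTT. Reaction ran 45 min at room temperature, then binding reagent was added for 30 min in the dark. IC50 was taken from dose-response fits of percent inhibition.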
A general note: Polarisation of emitted light reports the rotation of a fluorescent probe.

A further assay addresses T2, CDK2/cyclin A2 (Homo sapiens, UniProt P24941).
T2 construct: purchased Carna Biosciences, Inc. QS S Assist CDK2/Cyclin A2_FP Kit
The experiment in a line: Human CDK2/cyclin A2 inhibitory activity (QS S Assist CDK2/Cyclin A2_FP Kit, IMAP fluorescence polarization). It counts as biochemical. The method, boiled down: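 Kinase activity read as fluorescence polarization (485/535 nm) after phosphorylated fluorescent substrate binds IMAP reagent (30 min, RT, dark). Enzyme (2.5 ng/well) reacted 60 min at RT with ATP/substrate/metal in HEPES pH 7.4 buffer with Tween 20 and DTT; no-enzyme wells define 0% activity; IC50 by curve fit.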

Where [1] appears, read: Human CDK4/cyclin D3 inhibitory activity, read-out: CDK4 Activity symbol.
[2] abbreviates: Human CDK2/cyclin A2 inhibitory activity, read-out: CDK2 Activity symbol.
[3] abbreviates: 50% inhibitory concentration against CDK4/cyclin D3, given as class symbol.
The mark [4] stands for this setting: 50% inhibitory concentration against CDK2/cyclin A2, given as class symbol.

T1 sequence (P11802 whole entry): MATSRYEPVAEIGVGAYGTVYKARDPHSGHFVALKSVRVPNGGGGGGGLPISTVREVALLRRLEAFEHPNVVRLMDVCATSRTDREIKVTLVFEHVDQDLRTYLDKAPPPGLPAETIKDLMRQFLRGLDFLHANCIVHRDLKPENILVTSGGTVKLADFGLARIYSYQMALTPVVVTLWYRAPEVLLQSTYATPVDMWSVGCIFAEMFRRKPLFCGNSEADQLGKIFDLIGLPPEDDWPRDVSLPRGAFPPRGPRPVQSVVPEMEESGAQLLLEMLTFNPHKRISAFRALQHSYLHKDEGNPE
T1 sequence (P30281 whole entry partner): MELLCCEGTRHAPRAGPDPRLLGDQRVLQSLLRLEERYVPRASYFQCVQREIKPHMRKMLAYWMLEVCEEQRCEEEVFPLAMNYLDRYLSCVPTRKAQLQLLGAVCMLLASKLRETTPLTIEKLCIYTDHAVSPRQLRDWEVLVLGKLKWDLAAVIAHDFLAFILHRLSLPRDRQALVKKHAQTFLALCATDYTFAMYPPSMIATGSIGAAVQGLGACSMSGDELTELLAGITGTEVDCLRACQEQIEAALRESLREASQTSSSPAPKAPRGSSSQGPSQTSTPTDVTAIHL

On to `CC(C)Nc1nc(C(F)F)cc2cnc(Nc3ccc(CN4CCNC(=O)C4)cn3)nc12` [Compound 131], for which the values for the pIC50 at CDK4/cyclin D3 (setting [1]) and on CDK2/cyclin A2 (setting [2]) were > 8.00 and 7.00 to 8.00, respectively.

As to `CO[C@H](C)c1cc2cnc(Nc3ccc(N4CCCC(N)C4=O)cn3)nc2c(NC(C)C)n1` (some centres unmarked) [Compound 591], the figures for the pIC50 on CDK4/cyclin D3 (setting [1]) and on CDK2/cyclin A2 (setting [2]) were > 8.00 and ≤ 7.00, respectively.

Turning to `CC(C)Nc1nc([C@@H](C)O)cc2cnc(Nc3ccc(O[C@@H]4CCC[C@H]4N)cn3)nc12` [Compound 772], the pIC50 against CDK4/cyclin D3 (setting [3]) was > 8.00; against CDK2/cyclin A2 (setting [4]) it was ≤ 7.00.

On to `CC(C)Nc1nc([C@@H](C)O)cc2cnc(Nc3ccc(O[C@H]4CC[C@@H](N(C)C)CC4)cn3)nc12` [Compound 741], for which the pIC50 is > 8.00 on CDK4/cyclin D3 (setting [3]) and ≤ 7.00 on CDK2/cyclin A2 (setting [4]).

Take `Cc1c(CO)nc(NC(C)C)c2nc(Nc3ccc(N4CCNCC4)cn3)ncc12` [Compound 62]: the figures for the pIC50 at CDK4/cyclin D3 (setting [1]) and on CDK2/cyclin A2 (setting [2]) were > 8.00 and ≤ 7.00, respectively.

As for `CC(C)Nc1nc([C@@H](C)O)cc2cnc(Nc3ccc(CN4CCC(C(=O)O)CC4)cn3)nc12` [Compound 770], the pIC50 against CDK4/cyclin D3 (setting [3]) was 7.00 to 8.00; against CDK2/cyclin A2 (setting [4]), ≤ 7.00.

Regarding `CCNC(=O)NCc1ccc(Nc2ncc3cc(C(F)F)nc(NC(C)C)c3n2)nc1` [Compound 186], the pIC50 at CDK4/cyclin D3 (setting [1]) is 7.00 to 8.00; at CDK2/cyclin A2 (setting [2]), ≤ 7.00.

As to `CO[C@H](C)c1cc2cnc(Nc3ccc(CN4CCNCC4)cn3)nc2c(NC2CCOCC2)n1` [Compound 291], the results for the pIC50 on CDK4/cyclin D3 (setting [1]) and at CDK2/cyclin A2 (setting [2]) were > 8.00 and ≤ 7.00, respectively.

As for `CC(C)Nc1nc(C(F)F)cc2cnc(Nc3ccc(N4C[C@H](O)CC4=O)cn3)nc12` [Compound 183], the pIC50 is > 8.00 at CDK4/cyclin D3 (setting [1]) and 7.00 to 8.00 on CDK2/cyclin A2 (setting [2]).

`CN(C)CCN1CCc2nc(Nc3ncc4cc(C5CCOC5)nc(N[C@H]5CC[C@H](O)CC5)c4n3)ccc2C1` (some centres unmarked) [Compound 1181]: the pIC50 against CDK4/cyclin D3 (setting [3]) is > 8.00; against CDK2/cyclin A2 (setting [4]), ≤ 7.00.

Take `OCc1cc2cnc(Nc3ccc(N4CCNCC4)cn3)nc2c(NC2CCCC2)n1` [Compound 6]: the values for the pIC50 at CDK4/cyclin D3 (setting [1]) and at CDK2/cyclin A2 (setting [2]) were > 8.00 and 7.00 to 8.00, respectively.

On to `C[C@@H](O)c1cc2cnc(Nc3ccc(N4CCNCC4=O)cn3)nc2c(N[C@H]2CCCOC2)n1` [Compound 347], for which the pIC50 on CDK4/cyclin D3 (setting [1]) is > 8.00; on CDK2/cyclin A2 (setting [2]), ≤ 7.00.

On to `CC(C)Nc1nc(C(F)F)cc2cnc(Nc3ccc(C(N)=O)cn3)nc12` [Compound 96], for which the pIC50 on CDK4/cyclin D3 (setting [1]) and at CDK2/cyclin A2 (setting [2]) was 7.00 to 8.00 each time.

As to `CC(C)Nc1nc([C@@H](C)O)cc2cnc(Nc3ccc(OCC4CNC4)nn3)nc12` [Compound 579], the pIC50 on CDK4/cyclin D3 (setting [1]) is > 8.00; at CDK2/cyclin A2 (setting [2]) it was ≤ 7.00.

With `CCCNc1nc([C@@H](C)O)cc2cnc(Nc3ccc(N4CCNCC4=O)cn3)nc12` [Compound 814], the pIC50 against CDK4/cyclin D3 (setting [3]) was > 8.00; at CDK2/cyclin A2 (setting [4]), ≤ 7.00.

In the case of `C[C@@H](O)c1cc2cnc(Nc3ccc(N4CCNCC4)cn3)nc2c(N[C@@H]2CCOC2)n1` [Compound 995], the pIC50 at CDK4/cyclin D3 (setting [3]) was > 8.00; at CDK2/cyclin A2 (setting [4]) it was ≤ 7.00.

On to `CO[C@H](C)c1cc2cnc(Nc3ccc(CN4CCOCC4)cn3)nc2c(NC(C)C)n1` [Compound 172], for which the results for the pIC50 at CDK4/cyclin D3 (setting [1]) and on CDK2/cyclin A2 (setting [2]) were 7.00 to 8.00 and ≤ 7.00, respectively.

Consider `CCCCNc1nc([C@@H](C)O)cc2cnc(Nc3ccc(N4CCNCC4=O)cn3)nc12` [Compound 813], for which the pIC50 against CDK4/cyclin D3 (setting [3]) is > 8.00; on CDK2/cyclin A2 (setting [4]) it was ≤ 7.00.

Take `CC(C)Nc1nc(C(F)F)cc2cnc(Nc3ccc(CN4CCCCC4C(=O)O)cn3)nc12` (centres unmarked) [Compound 194]: the pIC50 on CDK4/cyclin D3 (setting [1]) is > 8.00; at CDK2/cyclin A2 (setting [2]), 7.00 to 8.00.

With `CC(C)Nc1nc([C@@H](C)O)cc2cnc(Nc3ccc(N4CCN(C(C)C#N)CC4=O)cn3)nc12` (some centres unmarked) [Compound 936], the pIC50 is > 8.00 on CDK4/cyclin D3 (setting [3]) and ≤ 7.00 against CDK2/cyclin A2 (setting [4]).

As for `CCNc1nc([C@@H](C)O)cc2cnc(Nc3ccc(CN4CCN(CCO)CC4)c(C)n3)nc12` [Compound 1046], the values for the pIC50 on CDK4/cyclin D3 (setting [3]) and against CDK2/cyclin A2 (setting [4]) were > 8.00 and ≤ 7.00, respectively.

Turning to `C[C@@H](O)c1cc2cnc(Nc3ccc(N4CCNCC4=O)cn3)nc2c(NCCCF)n1` [Compound 1079], the pIC50 was > 8.00 on CDK4/cyclin D3 (setting [3]) and ≤ 7.00 on CDK2/cyclin A2 (setting [4]).

As to `CC(=O)c1cc2cnc(Nc3ccc(N4CCNCC4)nn3)nc2c(NC2CCOCC2)n1` [Compound 330], the pIC50 was > 8.00 on CDK4/cyclin D3 (setting [1]) and ≤ 7.00 on CDK2/cyclin A2 (setting [2]).

Regarding `CO[C@H](C)c1cc2cnc(Nc3ccc(CCO)cn3)nc2c(NC(C)C)n1` [Compound 223], the values for the pIC50 on CDK4/cyclin D3 (setting [1]) and at CDK2/cyclin A2 (setting [2]) were > 8.00 and ≤ 7.00, respectively.

As for `CC(C)Nc1nc([C@@H](C)O)cc2cnc(Nc3ccc(N4CCN(CC#N)CC4=O)cn3)nc12` [Compound 899], the pIC50 on CDK4/cyclin D3 (setting [3]) was > 8.00; against CDK2/cyclin A2 (setting [4]), ≤ 7.00.
